Results taken from patent US20230117324A1, “OXAZINE MONOACYLGLYCEROL LIPASE (MAGL) INHIBITORS” (Hoffmann-La Roche Inc., priority 2018, published 2023).

biological target: T1, MAGL (Homo sapiens, UniProt Q99685); experiment: MAGL inhibition, 2-AG assay (hydrolysis of 2-arachidonoylglycerol, arachidonic acid by mass spectrometry); assay type: biochemical; settings: 2-AG assay (footnote [b])
T1 sequence (Q99685 1-303): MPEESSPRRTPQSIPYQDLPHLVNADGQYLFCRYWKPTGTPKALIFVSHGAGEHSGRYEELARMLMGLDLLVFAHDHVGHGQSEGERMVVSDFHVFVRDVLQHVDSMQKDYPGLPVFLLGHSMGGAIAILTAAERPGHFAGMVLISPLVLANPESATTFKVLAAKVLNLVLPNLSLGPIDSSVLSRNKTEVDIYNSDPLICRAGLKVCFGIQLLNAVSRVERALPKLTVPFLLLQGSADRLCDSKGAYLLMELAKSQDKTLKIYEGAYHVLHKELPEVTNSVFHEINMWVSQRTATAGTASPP
In short: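 Human MAGL […] was preincubated 15 min at RT with compound ([…], 3-fold steps) in 50 mM Tris, 1 mM EDTA, 0.01% Tween. 2-AG (8 μM) was then added for 30 min at RT. Arachidonic acid was quantified by RapidFire SPE–triple quadrupole MS in negative ESI as its ratio to a d8-arachidonic acid standard.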

SMILES | IC50 [nM]
O=C1CO[C@H]2CCN(C(=O)N3CCN(C(c4ccc(F)cc4F)C(F)(F)F)CC3)C[C@H]2N1 (stereo partly drawn) [Example 53, (4aR,8aS)-6-(4-(1-(2,4-Difluorophenyl)-2,2,2-trifluoroethyl)piperazine-1-carbonyl)hexahydro-2H-pyrido[4,3-b][1,4]oxazin-3(4H)-one] | 416
O=C1CO[C@H]2CCN(C(=O)N3CC(C(O)(c4ccc(F)cc4)c4ccc(F)cc4)C3)C[C@H]2N1 [Example 54, (4aR,8aS)-6-(3-(Bis(4-fluorophenyl)(hydroxy)methyl)azetidine-1-carbonyl)hexahydro-2H-pyrido[4,3-b][1,4]oxazin-3(4H)-one] | 804
O=C1CO[C@H]2CCN(C(=O)N3CC(C(F)(c4ccc(F)cc4)c4ccc(F)cc4)C3)C[C@H]2N1 [Example 55, (4aR,8aS)-6-(3-(Fluorobis(4-fluorophenyl)methyl)azetidine-1-carbonyl)hexahydro-2H-pyrido[4,3-b][1,4]oxazin-3(4H)-one] | 419
O=C1CO[C@H]2CCN(C(=O)N3CCC(C(COCC(F)(F)F)c4ccc(F)cc4)CC3)C[C@H]2N1 (stereo partly drawn) [Example 56, (4aR,8aS)-6-(4-(1-(4-Fluorophenyl)-2-(2,2,2-trifluoroethoxy)ethyl)piperidine-1-carbonyl)hexahydro-2H-pyrido[4,3-b][1,4]oxazin-3(4H)-one] | 21
O=C1CO[C@H]2CCN(C(=O)N3CCC(c4ccnc(C5CC5)c4)CC3)C[C@H]2N1 [Example 61, (4aR,8aS)-6-(4-(2-Cyclopropylpyridin-4-yl)piperidine-1-carbonyl)hexahydro-2H-pyrido[4,3-b][1,4]oxazin-3(4H)-one] | 569
O=C1CO[C@H]2CCN(C(=O)N3CCC(C(Oc4ccc(F)cc4Cl)C(F)(F)F)CC3)C[C@H]2N1 (stereo partly drawn) [Example 81, (4aR,8aS)-6-(4-(1-(2-Chloro-4-fluorophenoxy)-2,2,2-trifluoroethyl)piperidine-1-carbonyl)hexahydro-2H-pyrido[4,3-b][1,4]oxazin-3(4H)-one] | 3
CC(c1ccc(C(F)(F)F)cc1)C1CN(C(=O)N2CC[C@@H]3OCC(=O)N[C@@H]3C2)C1 (stereo partly drawn) [Example 83, (4aR,8aS)-6-[3-[1-[4-(Trifluoromethyl)phenyl]ethyl]azetidine-1-carbonyl]-4,4a,5,7,8,8a-hexahydropyrido[4,3-b][1,4]oxazin-3-one] | 114
O=C1CO[C@H]2CCN(C(=O)N3CC(C(c4ccccc4)c4ccccc4)C3)C[C@H]2N1 [Example 86, (4aR,8aS)-6-(3-Benzhydrylazetidine-1-carbonyl)hexahydro-2H-pyrido[4,3-b][1,4]oxazin-3(4H)-one] | 155
CC(OC1CN(C(=O)N2CC[C@@H]3OCC(=O)N[C@@H]3C2)C1)c1ccc(C(F)(F)F)cc1 (stereo partly drawn) [Example 90, (4aR,8aS)-6-[3-[1-[4-(Trifluoromethyl)phenyl]ethoxy]azetidine-1-carbonyl]-4,4a,5,7,8,8a-hexahydropyrido[4,3-b][1,4]oxazin-3-one] | 49
CC(Oc1ccc(C(F)(F)F)cc1F)C1CN(C(=O)N2CC[C@@H]3OCC(=O)N[C@@H]3C2)C1 (stereo partly drawn) [Example 91, (4aR,8aS)-6-(3-(1-(2-Fluoro-4-(trifluoromethyl)phenoxy)ethyl)azetidine-1-carbonyl)hexahydro-2H-pyrido[4,3-b][1,4]oxazin-3(4H)-one] | 15
CC(Oc1ccc(C(F)(F)F)cc1)C1CN(C(=O)N2CC[C@@H]3OCC(=O)N[C@@H]3C2)C1 (stereo partly drawn) [Example 92, (4aR,8aS)-6-(3-(1-(4-(Trifluoromethyl)phenoxy)ethyl)azetidine-1-carbonyl)hexahydro-2H-pyrido[4,3-b][1,4]oxazin-3(4H)-one] | 20
CC(OC1CCN(C(=O)N2CC[C@@H]3OCC(=O)N[C@@H]3C2)CC1)c1ccc(C(F)(F)F)cc1 (stereo partly drawn) [Example 93, (4aR,8aS)-6-[4-[1-[4-(Trifluoromethyl)phenyl]ethoxy]piperidine-1-carbonyl]-4,4a,5,7,8,8a-hexahydropyrido [4,3-b][1,4]oxazin-3-one] | 73
Cc1cc(C2CCN(C(=O)N3CC[C@@H]4OCC(=O)N[C@@H]4C3)CC2)cnc1C(F)(F)F [Example 101, (4aR,8aS)-6-(4-(5-Methyl-6-(trifluoromethyl)pyridin-3-yl)piperidine-1-carbonyl)hexahydro-2H-pyrido[4,3-b][1,4]oxazin-3(4H)-one] | 219
O=C1CO[C@H]2CCN(C(=O)N3CCC(C(c4ccc(F)cc4)c4nc(C(F)(F)F)no4)CC3)C[C@H]2N1 (stereo partly drawn) [Example 102, (4aR,8aS)-6-(4-((4-Fluorophenyl)(3-(trifluoromethyl)-1,2,4-oxadiazol-5-yl)methyl)piperidine-1-carbonyl)hexahydro-2H-pyrido[4,3-b][1,4]oxazin-3(4H)-one] | 5
O=C1CO[C@H]2CCN(C(=O)N3CCC(c4ccnc5c4CCCC5)CC3)C[C@H]2N1 [Example 107, (4aR,8aS)-6-(4-(5,6,7,8-Tetrahydroquinolin-4-yl)piperidine-1-carbonyl)hexahydro-2H-pyrido[4,3-b][1,4]oxazin-3(4H)-one] | 576
O=C1CO[C@H]2CCN(C(=O)N3CC(c4ccc(Br)cc4)C3)C[C@H]2N1 [Example 110, (4aR,8aS)-6-[3-(4-bromophenyl)azetidine-1-carbonyl]-4,4a,5,7,8,8a-hexahydropyrido[4,3-b][1,4]oxazin-3-one] | 29
O=C1CO[C@H]2CCN(C(=O)N3CC(c4ccc(-c5ccc(Cl)cc5)cc4)C3)C[C@H]2N1 [Example 111, (4aR,8aS)-6-(3-(4′-Chloro-[1,1′-biphenyl]-4-yl)azetidine-1-carbonyl)hexahydro-2H-pyrido[4,3-b][1,4]oxazin-3(4H)-one] | 0.4
O=C1CO[C@H]2CCN(C(=O)N3CC(c4ccc(-c5ccccc5Cl)cc4)C3)C[C@H]2N1 [Example 112, (4aR,8aS)-6-(3-(2′-Chloro-[1,1′-biphenyl]-4-yl)azetidine-1-carbonyl)hexahydro-2H-pyrido[4,3-b][1,4]oxazin-3(4H)-one] | 0.1
O=C1CO[C@H]2CCN(C(=O)N3CC(c4ccc(-c5ccc(Cl)cc5Cl)cc4)C3)C[C@H]2N1 [Example 113, (4aR,8aS)-6-(3-(2′,4′-Dichloro-[1,1′-biphenyl]-4-yl)azetidine-1-carbonyl)hexahydro-2H-pyrido[4,3-b][1,4]oxazin-3(4H)-one] | 0.04
O=C1CO[C@H]2CCN(C(=O)N3CC(c4ccc(OC(F)(F)F)cc4)C3)C[C@H]2N1 [Example 120, (4aR,8aS)-6-[3-[4-(Trifluoromethoxy)phenyl]azetidine-1-carbonyl]-4,4a,5,7,8,8a-hexahydropyrido[4,3-b][1,4]oxazin-3-one] | 7
O=C1CO[C@H]2CCN(C(=O)N3CC(c4ccc(-c5ccccc5OC(F)(F)F)cc4)C3)C[C@H]2N1 [Example 121, (4aR,8aS)-6-(3-(2′-(Trifluoromethoxy)-[1,1′-biphenyl]-4-yl)azetidine-1-carbonyl)hexahydro-2H-pyrido[4,3-b][1,4]oxazin-3(4H)-one] | 0.03
O=C1CO[C@H]2CCN(C(=O)N3CC(F)(c4ccc(Br)cc4)C3)C[C@H]2N1 [Example 122, (4aR,8aS)-6-(3-(4-Bromophenyl)-3-fluoroazetidine-1-carbonyl)hexahydro-2H-pyrido[4,3-b][1,4]oxazin-3(4H)-one] | 90
O=C1CO[C@H]2CCN(C(=O)N3CC(O)(c4ccc(Br)cc4)C3)C[C@H]2N1 [Example 123, (4aR,8aS)-6-(3-(4-Bromophenyl)-3-hydroxyazetidine-1-carbonyl)hexahydro-2H-pyrido[4,3-b][1,4]oxazin-3(4H)-one] | 226
CC1(c2ccc(Br)cc2)CN(C(=O)N2CC[C@@H]3OCC(=O)N[C@@H]3C2)C1 [Example 124, (4aR,8aS)-6-(3-(4-Bromophenyl)-3-methylazetidine-1-carbonyl)hexahydro-2H-pyrido[4,3-b][1,4]oxazin-3(4H)-one] | 113
O=C1CO[C@H]2CCN(C(=O)N3CC(c4ccc(-c5ccccc5C(F)(F)F)cc4)C3)C[C@H]2N1 [Example 125, (4aR,8aS)-6-(3-(2′-(Trifluoromethyl)-[1,1′-biphenyl]-4-yl)azetidine-1-carbonyl)hexahydro-2H-pyrido[4,3-b][1,4]oxazin-3(4H)-one] | 0.04
O=C1CO[C@H]2CCN(C(=O)N3CC(c4ccc(-c5ccc(F)cc5F)cc4)C3)C[C@H]2N1 [Example 126, (4aR,8aS)-6-(3-(2′,4′-Difluoro-[1,1′-biphenyl]-4-yl)azetidine-1-carbonyl)hexahydro-2H-pyrido[4,3-b][1,4]oxazin-3(4H)-one] | 0.3
N#Cc1ccccc1-c1ccc(C2CN(C(=O)N3CC[C@@H]4OCC(=O)N[C@@H]4C3)C2)cc1 [Example 127, 4′-(1-((4aR,8aS)-3-Cxooctahydro-2H-pyrido[4,3-b][1,4]oxazine-6-carbonyl)azetidin-3-yl)-[1,1′-biphenyl]-2-carbonitrile] | 0.5
COC1CN(c2ccc(C3CN(C(=O)N4CC[C@@H]5OCC(=O)N[C@@H]5C4)C3)cc2)C1 [Example 128, (4aR,8aS)-6-(3-(4-(3-Methoxyazetidin-1-yl)phenyl)azetidine-1-carbonyl)hexahydro-2H-pyrido[4,3-b][1,4]oxazin-3(4H)-one] | 45
